Patent publication US9126945B2, “N-(3-carbamoylphenly)-1H-pyrazole-5-carboxamide derivatives and the use thereof for controlling animal pests” (BAYER INTELLECTUAL PROPERTY GMBH, priority 2011, dated 2015)

Assay: log P by HPLC, EEC Directive 79/831 Annex V.A8, method a)
Type: physicochemical
Conditions: for logP: cell prints no method mark; Ex. 40 value equals the log P given under method a)
Experimental: (§1) ^a) Note regarding the determination of the log P values and mass detection The determination of the given log P values was carried out in accordance with EEC Directive 79/831 Annex V.A8 by HPLC (High Performance Liquid Chromatography) on a reversed-phase column (C18). Agilent 1100 LC system; 50*4.6 Zorbax Eclipse Plus C18 1.8 micron; mobile phase A: acetonitrile (0.1% formic acid); mobile phase B: water (0.09% formic acid); linear gradient from 10% acetonitrile to 95% acetonitrile in 4.25 min, then 95% acetonitrile for a further 1.25 min; oven temperature 55° C.; flow rate: 2.0 ml/min Mass detection is via an Agilend MSD system.
as §1, with “mass detection:” for “mass detection”, “2.0 ml/min.” for “2.0 ml/min”

[1] = reversed-phase C18 HPLC column; HPLC-MS method a), reversed-phase C18, acetonitrile/water with formic acid
[2] = reversed-phase HPLC column (C18); cell prints no method mark; Ex. 40 value equals the log P given under method a)

Compound | logP | further results
CSc1c(C(F)(F)C(F)(F)F)nn(C)c1C(=O)O [1-Methyl-4-(methylsulphanyl)-3-(pentafluoroethyl)-1H-pyrazole-5-carboxylic acid] |  | chromatographic logP (reversed-phase HPLC column (C18), HPLC-MS, method note not marked): 3.51
Cn1nc(C(F)(F)C(F)(F)F)c(C(F)(F)F)c1C(=O)Nc1ccc(Cl)c(C(=O)O)c1 [2-Chloro-5-({[1-methyl-3-(pentafluoroethyl)-4-(trifluoromethyl)-1H-pyrazol-5-yl]carbonyl}amino)benzenecarboxylic acid] |  | chromatographic logP [1]: 3.18
N#CC1(NC(=O)c2cc([N+](=O)[O-])ccc2Cl)CC1 [2-chloro-N-(1-cyanocyclopropyl)-5-nitrobenzamide] |  | chromatographic logP [1]: 1.52
Cn1nc(C2(Cl)CC2)c(Cl)c1C(=O)O [4-Chloro-3-(1-chlorocyclopropyl)-1-methyl-1H-pyrazole-5-carboxylic acid] |  | chromatographic logP [1]: 1.9
Cn1nc(C2(F)CC2)c(Cl)c1C(=O)O [4-Chloro-3-(1-fluorocyclopropyl)-1-methyl-1H-pyrazole-5-carboxylic acid] |  | chromatographic logP [1]: 3.07
N#CC1(NC(=O)c2cc(N)ccc2Cl)CC1 [5-Amino-2-chloro-N-(1-cyanocyclopropyl)benzamide] |  | chromatographic logP [1]: 0.82
CCOC(=O)c1c(Cl)c(C2(Cl)CC2)nn1C [Ethyl 4-chloro-3-(1-chlorocyclopropyl)-1-methyl-1H-pyrazole-5-carboxylate] |  | chromatographic logP [1]: 3.52
CCOC(=O)c1c(Cl)c(C2(F)CC2)nn1C [Ethyl 4-chloro-3-(1-fluorocyclopropyl)-1-methyl-1H-pyrazole-5-carboxylate] |  | chromatographic logP [1]: 3.07
Cn1nc(C(F)(F)F)c(C(F)(F)F)c1C(=O)Nc1cc(Br)c(Br)c(C(=O)NC2(C#N)CC2)c1 [Example 11] | 3.30 | 
Cn1nc(C(F)(F)F)c(C(F)(F)F)c1C(=O)Nc1cc(Cl)c(Br)c(C(=O)NC2(C#N)CC2)c1 [Example 12] | 3.27 | 
Cn1nc(C(F)(F)C(F)(F)F)c(C(F)(F)F)c1C(=O)Nc1cc(Br)c(Cl)c(C(=O)NC2(C#N)CC2)c1 [Example 13] | 3.67 | 
CCC(=O)N(C(=O)c1cc(NC(=O)c2c(C(F)(F)F)c(C(F)(F)C(F)(F)F)nn2C)ccc1Cl)C1(C#N)CC1 [Example 15] | 4.17 | 
Cn1nc(C(F)(F)C(F)(F)F)c(C(F)(F)F)c1C(=O)Nc1cc(Cl)c(Br)c(C(=O)NC2(C#N)CC2)c1 [Example 16] | 3.73 | 
Cn1nc(C2(F)CC2)c(Cl)c1C(=O)Nc1ccc(Cl)c(C(=O)NC2(C#N)CC2)c1 [Example 17] | 2.50 | 
CC(=O)N(C(=O)c1c(C(F)(F)F)c(C(F)(F)C(F)(F)F)nn1C)c1ccc(Cl)c(C(=O)N(C(C)=O)C2(C#N)CC2)c1 [Example 18] | 4.04 | 
COC(=O)N(C(=O)c1c(C(F)(F)F)c(C(F)(F)C(F)(F)F)nn1C)c1ccc(Cl)c(C(=O)NC2(C#N)CC2)c1 [Example 19] | 3.69 | 
CCOC(=O)N(C(=O)c1c(C(F)(F)F)c(C(F)(F)C(F)(F)F)nn1C)c1ccc(Cl)c(C(=O)NC2(C#N)CC2)c1 [Example 20] | 3.95 | 
COC(=O)N(C(=O)c1c(C(F)(F)F)c(C(F)(F)C(F)(F)F)nn1C)c1ccc(Cl)c(C(=O)N(C(=O)OC)C2(C#N)CC2)c1 [Example 21] | 4.32 | 
CCOC(=O)N(C(=O)c1c(C(F)(F)F)c(C(F)(F)C(F)(F)F)nn1C)c1ccc(Cl)c(C(=O)N(C(=O)OCC)C2(C#N)CC2)c1 [Example 22] | 4.80 | 
Cn1nc(C(F)(F)C(F)(F)F)c(C(F)(F)F)c1C(=O)N(C(=O)C(C)(C)C)c1ccc(Cl)c(C(=O)NC2(C#N)CC2)c1 [Example 23] | 4.40 | 
Cc1cc(NC(=O)c2c(C(F)(F)F)c(C(F)(F)C(F)(F)F)nn2C)cc(C(=O)NC2(C#N)CC2)c1Cl [Example 24] | 3.51 | 
C#CCN(C(=O)c1c(C(F)(F)F)c(C(F)(F)C(F)(F)F)nn1C)c1ccc(Cl)c(C(=O)NC2(C#N)CC2)c1 [Example 26] | 3.41 | 
Cn1nc(C(F)(F)C(F)(F)F)c(C(F)(F)F)c1C(=O)Nc1ccc(F)c(C(=O)NC2(C#N)CC2)c1 [Example 27] | 3.21 | 
Cn1nc(C(F)(F)C(F)(F)F)c(C(F)(F)F)c1C(=O)N(Cc1ccc(Cl)cc1)c1ccc(Cl)c(C(=O)NC2(C#N)CC2)c1 [Example 28] | 4.30 | 
CC(C)C(=O)N(C(=O)c1c(C(F)(F)F)c(C(F)(F)C(F)(F)F)nn1C)c1ccc(Cl)c(C(=O)NC2(C#N)CC2)c1 [Example 29] | 4.38 | 
CC#CCN(C(=O)c1c(C(F)(F)F)c(C(F)(F)C(F)(F)F)nn1C)c1ccc(Cl)c(C(=O)NC2(C#N)CC2)c1 [Example 30] | 3.60 | 

Compound | logP | further results
Cn1nc(C(F)(F)C(F)(F)F)c(C(F)(F)F)c1C(=O)N(Cc1ccccc1)c1ccc(Cl)c(C(=O)NC2(C#N)CC2)c1 [Example 31] | 3.97 | 
Cn1nc(C(F)(F)C(F)(F)F)c(C(F)(F)F)c1C(=O)N(Cc1ccccn1)c1ccc(Cl)c(C(=O)NC2(C#N)CC2)c1 [Example 32] | 3.53 | 
CCC(=O)N(C(=O)c1c(C(F)(F)F)c(C(F)(F)C(F)(F)F)nn1C)c1ccc(Cl)c(C(=O)NC2(C#N)CC2)c1 [Example 33] | 3.91 | 
CCn1nc(C(F)(F)C(F)(F)F)c(C(F)(F)F)c1C(=O)Nc1ccc(Cl)c(C(=O)NC2(C#N)CC2)c1 [Example 34] | 3.53 | 
CCCn1nc(C(F)(F)C(F)(F)F)c(C(F)(F)F)c1C(=O)Nc1ccc(Cl)c(C(=O)NC2(C#N)CC2)c1 [Example 35] | 3.87 | 
CCCn1nc(C(F)(F)C(F)(F)F)c(C(F)(F)F)c1C(=O)Nc1ccc(F)c(C(=O)NC2(C#N)CC2)c1 [Example 36] | 3.74 | 
CCn1nc(C(F)(F)C(F)(F)F)c(C(F)(F)F)c1C(=O)Nc1ccc(F)c(C(=O)NC2(C#N)CC2)c1 [Example 37] | 3.44 | 
CCn1nc(C(F)(F)C(F)(F)F)c(C(F)(F)F)c1C(=O)N(C)c1ccc(Cl)c(C(=O)NC2(C#N)CC2)c1 [Example 38] | 3.57 | 
CC(=O)N(C(=O)c1cc(NC(=O)c2c(C(F)(F)F)c(C(F)(F)C(F)(F)F)nn2C)ccc1Cl)C1(C#N)CC1 [Example 40, N-{3-[Acetyl(1-cyanocyclopropyl)carbamoyl]-4-chlorophenyl}-1-methyl-3-(pentafluoroethyl)-4-(trifluoromethyl)-1H-pyrazole-5-carboxamide] |  | chromatographic logP [1]: 3.81; chromatographic logP [2]: 3.81
CCn1nc(C(F)(F)C(F)(F)F)c(C(F)(F)F)c1C(=O)N(C)c1ccc(Cl)c(C(=O)N(C)C2(C#N)CC2)c1 [Example 41] | 3.85 | 
CSc1c(C(F)(F)C(F)(F)F)nn(C)c1C(=O)Nc1ccc(Cl)c(C(=O)NC2(C#N)CC2)c1 [Example 42] | 3.43 | 
CCN(C(=O)c1c(C(F)(F)F)c(C(F)(F)C(F)(F)F)nn1CC)c1ccc(Cl)c(C(=O)NC2(C#N)CC2)c1 [Example 43] | 3.68 | 
Cn1nc(C(F)(F)C(F)(F)F)c(C(F)(F)F)c1C(=O)N(CC#N)c1ccc(Cl)c(C(=O)NC2(C#N)CC2)c1 [Example 44] | 3.25 | 
Cn1nc(C(F)(F)C(F)(F)F)c([S+](C)[O-])c1C(=O)Nc1ccc(Cl)c(C(=O)NC2(C#N)CC2)c1 (centres unmarked) [Example 45] | 2.91 | 
CCCn1nc(C(F)(F)C(F)(F)F)c(C(F)(F)F)c1C(=O)N(C)c1ccc(Cl)c(C(=O)N(C)C2(C#N)CC2)c1 [Example 46] | 4.26 | 
CCCn1nc(C(F)(F)C(F)(F)F)c(C(F)(F)F)c1C(=O)N(C)c1ccc(F)c(C(=O)N(C)C2(C#N)CC2)c1 [Example 47] | 4.05 | 
CCn1nc(C(F)(F)C(F)(F)F)c(C(F)(F)F)c1C(=O)N(C)c1ccc(F)c(C(=O)N(C)C2(C#N)CC2)c1 [Example 48] | 3.76 | 
Cn1nc(C(F)(F)C(F)(F)F)c(S(C)(=O)=O)c1C(=O)Nc1ccc(Cl)c(C(=O)NC2(C#N)CC2)c1 [Example 49] | 2.47 | 
CCCn1nc(C(F)(F)C(F)(F)F)c(C(F)(F)F)c1C(=O)N(CC)c1ccc(Cl)c(C(=O)NC2(C#N)CC2)c1 [Example 50, N-{4-Chloro-3-[(1-cyanocyclopropyl)carbamoyl]phenyl}-N-ethyl-3-(pentafluoroethyl)-1-propyl-4-(trifluoromethyl)-1H-pyrazole-5-carboxamide] |  | chromatographic logP [1]: 4.06; chromatographic logP [2]: 4.06
CCCn1nc(C(F)(F)C(F)(F)F)c(C(F)(F)F)c1C(=O)N(CC)c1ccc(Cl)c(C(=O)N(CC)C2(C#N)CC2)c1 [Example 51] | 4.68 | 
CCN(C(=O)c1c(C(F)(F)F)c(C(F)(F)C(F)(F)F)nn1CC)c1ccc(Cl)c(C(=O)N(CC)C2(C#N)CC2)c1 [Example 52] | 4.26 | 
CC(=O)N(C(=O)c1c(C(F)(F)F)c(C(F)(F)C(F)(F)F)nn1C)c1ccc(Cl)c(C(=O)NC2(C#N)CC2)c1 [Example 53] | 3.63 | 
Cn1nc(C(F)(F)C(F)(F)F)c(C(F)(F)F)c1C(=O)N(Cc1cccnc1)c1ccc(Cl)c(C(=O)NC2(C#N)CC2)c1 [Example 54] | 2.85 | 
C=C(C)CN(C(=O)c1c(C(F)(F)F)c(C(F)(F)C(F)(F)F)nn1C)c1ccc(Cl)c(C(=O)NC2(C#N)CC2)c1 [Example 55] | 3.78 | 
Cn1nc(C(F)(F)C(F)(F)F)c(C(F)(F)F)c1C(=O)N(Cc1ccncc1)c1ccc(Cl)c(C(=O)NC2(C#N)CC2)c1 [Example 56] | 2.52 | 
